US7790171B1, “Antiviral peptides obtained from the tryptophan-rich hydrophobic cluster of the HIV-1 reverse transcriptase” (priority 2000, dated 2010)
Where no end group is shown, it is not given here.

Legend:
CEM cells = test: Toxicity in CEM cells; type: cell-based, human
HIV-2 ROD = test: RT activity assay of viral production in HIV-2 ROD-infected CEM cells; type: cell-based
Protocol: (§1) FIG. 1: Effect of different concentrations of MPG/p7 (SEQ ID NO:1) on HIV-1 and HIV-2 in CEM cell cultures. CEM cells exposed to 100 μl of viral suspensions containing 1000×50% tissue culture infective dose (TCID50)/m1 of HIV-1 BRU (left panels) or HIV-2 ROD (right panels). a, HIV-infected cells were cultured in medium alone (white diamonds) or medium supplemented with MPG/p7 at 10^−7 M (black circles), 10^−8 M, (black up triangles), 10^−9 M (black diamonds), and 10^−10 M (black squares). b, As controls, HIV-infected cells were treated with either azidothymidine (AZT: 10^−5 M) (white squares) or peptide MPG/p237 (SEQ ID NO:5) at 10^−6 M (black down triangles). Viral production was monitored by measuring RT activity twice a week post infection. Culture supernatants from virus-free CEM were tested as a control (white circles, FIG. 1b).
(§2) RI activity assay. CEM cells were incubated for 30 mm at 4° C. with 100 μl of stock HIV preparation corresponding to 1000×50% tissue culture infective dose (TCID50)/ml, then cells were washed five times and cultured at 5×10^5 cell/ml in 24-well microplates in the presence or absence of MPG/p7 (at 10^−8 and 10^−7 M) or AZT (AZT was purchased from Boehringer Mannheim, Germany) additive. Viral production was monitored twice a week by measuring reverse transcriptase activity in 1 ml of cell-free supernatant as previously described (39).

[1] = system: HIV-2 ROD, EHO (clades A and B); test: β-gal activity assay in MAGIC-5 cells, HIV-2 isolates; type: cell-based; details: MAGIC5 cells, β-gal activity day 3
Protocol: (§3) FIG. 2: Effect of MPG/p7 (SEQ ID NO:1) on replication of different subtypes of HIV-1 and HIV-2 studied using MAGIC5 cells. MAGIC-5 cells were incubated with 50 μl of stock HIV preparation corresponding to 1000×TCID50/ml. a, HIV-1 BRU; b, HIV-1 RF; c, HIV-1 SF2 (FIG. 2.A); d, HIV-1 NDK; e, HIV-1 ELI; f, HIV-2 ROD; g, HIV-2 EHO (FIG. 2.B) in medium alone (lane 2), medium supplemented with AZT (10^−5 M) (lane 3), MPG/p7 at 10^−7 and 10^−8 M (lane 4 and 5 respectively), or MPG/p237 (SEQ ID NO:5) at 10^−6 M (lane 6) additive. After 3 days in culture, 13-gal activity was evaluated in cell lysates by measuring absorbance at 410 nm. β-gal activity in uninfected MAGIC5 cells was measured as control (lane 1). […] The calculated values represent means of duplicate. […]
(§4) β-gal activity assay. […] After 3 days in culture, cells were lysed and β-gal activity was determined by incubating 200 μl of total cellular extracts for 1 hat 37° C. in 1.5 ml buffer containing 80 mM NA2HPO4, 10 mM MgCl2, 1 mM 2 ME and 6 mM o-nitrophenyl β-D-galactopyranoside (ONPG). β-gal activity was evaluated by measuring absorbance at 410 nm.
(§5) The efficiency of MPG/p7 monitored using the previously described MAGIC5 transfectant cells that express surface CD4, CXCR4 and CCR5 receptors and contain a reporter gene under control of an HIV-1 promoter that can be induced upon infection of the cells. […]

[2] = system: HIV-1 BRU, RF, SF2, NDK, ELI (clades B and D); test: β-gal activity assay in MAGIC-5 cells, HIV-1 isolates; type: cell-based; details: MAGIC5 cells, β-gal activity day 3, X4 and R5/X4 strains
Protocol: as §3, §4, §5

HIV-1 RTMC = test: β-gal activity assay in MAGIC-5 cells, HIV-1 RTMC; type: cell-based
Protocol: (§6) FIG. 3: Effect of MPG/p7 (SEQ ID NO:1) on replication of reference escape variant viruses. MAGIC-5 cells were incubated with 50 μl of stock HIV preparation corresponding to 1000×TCID50/ml of a, HIV-1 BRU; b, HIV-1 RTMF; c, HIV-1 RTMC; d, HIV-1 74V (FIG. 3.A); e, HIV-1 N119; f, HIV-1 RTMDR1 (FIG. 3.B), in medium alone (lane 2) or medium supplemented with AZT at 10^−5 M, 10^−6 M, 10^−7 M, 10^−8 M, 10^−9 M, and 10^−10 M (lanes 3 to 8 respectively), MPG/p7 at 10^−8 and 10^−7M (lanes 9 and 10), or MPG/p237 at 10^−6M (lane 11) additive. β-gal activity was evaluated on day 3 after virus exposure. β-gal activity in uninfected MAGIC5 cells was measured as control (lane 1). All results have been normalized (see legend of FIG. 2). The calculated values represent means of duplicate. Each figure is representative of at least three independent experiments.
as §4

[3] = system: HIV-1 RTMF, HIV-1 RTMC, HIV-1 74V, HIV-1 N119 and HIV-1 RTMDR1; test: β-gal activity assay in MAGIC-5 cells, anti-RT drug resistant HIV-1 strains; type: cell-based; details: β-gal activity day 3
Protocol: as §6
as §4, with “nm. […]” for “nm.”

HIV-1 RTMDR1 = test: β-gal activity assay in MAGIC-5 cells, HIV-1 RTMDR1; type: cell-based; details: FIG. 3f
Protocol: as §6, §4

[4] = target: HIV-1 RT dimerization (p66/p51) (Human immunodeficiency virus type 1 group M subtype B, UniProt P03366); details: cited from earlier work
HIV-1 BRU [5] = test: RT activity assay of viral production in HIV-1 BRU-infected CEM cells; type: cell-based
Protocol: as §1, §2

HIV-1 BRU [6] = details: cited from earlier work

With KETWETWWTE [p7, KETWETWWTE] the “concentrations without any toxicity in CEM cells” value (CEM cells) was “below 10^−5 M”.
For “MPG/p7: non-covalent complex of peptide p7 (SEQ ID NO:1) with carrier peptide MPG (SEQ ID NO:2) (chain 1 KETWETWWTE; chain 2 GALFLGFLGAAGSTMGAWSQPKSKRKV; also: non-covalent complex of p7 with carrier MPG)”, the “delay in HIV-2 replication” value (HIV-2 ROD; 10^−9 M of MPG/p7, CEM cells) was 3 days, the “concentrations that strongly delay HIV-2ROD propagation” value (HIV-2 ROD; RT activity in supernatant, CEM cells) was “above 10^−7 M” and the “concentration at which all HIV-2 strains tested were susceptible” value [1] was 10^−8 M. The “concentration at which all HIV-1 strains tested were susceptible” value [2] was 10^−8 M, the “concentration required to inhibit HIV-1 RTMC relative to other viruses” value (HIV-1 RTMC; FIG. 3c) was “higher than that required to block the other viruses” and the “concentration required to completely inhibit HIV-1 RTMC” value (HIV-1 RTMC; data not shown) was 10^−6 M. For the same substance, the “sensitivity of escape mutant viruses to treatment” value [3] was “sensitive”, the “concentration required to inhibit HIV-1 RTMDR1 relative to other viruses” value (HIV-1 RTMDR1) was “higher than that required to block the other viruses” and the “inhibition of HIV-1BRU RT dimerization in vitro (previously shown)” value [4] was “inhibit”. The “effect on HIV-1BRU replication at 10^−9 M” value (HIV-1 BRU [5]; 10^−9 M, RT activity at the end of culture (day 17), CEM cells) was “very slow virus propagation”, the “delay in HIV-1 replication” value (HIV-1 BRU [5]; 10^−10 M of MPG/p7, CEM cells) was 3 days and the “concentration that abolishes the production of viral particles” value (HIV-1 BRU [5]; HIV-1 BRU-infected cultured CEM cells) was 10^−8 M. The “concentrations that totally inhibit HIV-1BRU replication” value (HIV-1 BRU [5]; RT activity in cell free supernatant, 17 days of incubation, CEM cells) was “above 10^−8 M” and the “inhibition of HIV-1BRU replication in CEM cell culture (previously shown)” value (HIV-1 BRU [6]) was “inhibit”.
